For orientation: pIC50 means the IC50 on a negative log10 scale, so that one unit is a factor of ten. The low end stands for a high IC50, the high end for a low IC50.

The values below come from patent publication US9351965B2, “Indazole derivatives useful as ERK inhibitors” (Merck Sharp & Dohme Corp., priority 2010, dated 2016).

Structures are written as SMILES. pIC50: −log10 of the molar value.

This experiment deals with fully phosphorylated, active Mouse ERK2 protein (Mus musculus (Mouse), UniProt P63085). Kind of experiment: Active ERK2 (aERK) IMAP assay. The class given is biochemical. To be noted: IMAP fluorescence polarization; 30 μM ATP; 30 minute pre-incubation. As to the method: 14 μl of kinase buffer (10 mM Tris.HCl pH 7.2, 10 mM MgCl2, 0.01% Tween-20, 1 mM DTT) containing 0.4 ng unphosphorylated Mouse ERK2 protein was added to each well of a black 384-well assay plate. […] DMSO concentration during initial incubation is 6.7%. […] DMSO concentration during ERK activation was 4%. After one hour, reactions were terminated by addition of 60 μl IMAP detections beads in binding buffer (Molecular Devices). Binding was allowed to equilibrate for 30 minutes before reading the plate on an LJL Analyst Fluorescence Polarization plate reader.
fully phosphorylated, active Mouse ERK2 protein, sequence (P63085 whole entry): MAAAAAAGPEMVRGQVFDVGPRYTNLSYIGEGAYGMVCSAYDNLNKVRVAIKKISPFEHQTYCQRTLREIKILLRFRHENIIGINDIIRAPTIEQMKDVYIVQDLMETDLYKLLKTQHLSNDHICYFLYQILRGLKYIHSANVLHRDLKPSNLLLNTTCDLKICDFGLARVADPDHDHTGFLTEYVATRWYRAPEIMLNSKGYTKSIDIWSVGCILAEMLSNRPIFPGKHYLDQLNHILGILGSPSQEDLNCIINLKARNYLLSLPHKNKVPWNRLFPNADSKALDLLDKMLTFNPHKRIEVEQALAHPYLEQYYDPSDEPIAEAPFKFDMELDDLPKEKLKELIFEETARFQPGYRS
Active ERK2 (aERK) Assay:
Activated ERK2 activity was also determined in the IMAP assay format using the procedure outlined above. […] Reactions proceeded for 30 minutes before termination by addition of 60 μl IMAP detection beads in binding buffer. Plates were read as above after 30 minute binding equilibration.

`Cc1cc(-c2n[nH]c3ccc(C(=O)NC4CCCC(Cn5cc6cc(F)ccc6n5)C4)cc23)ccn1` (mixture of isomers) [compound 124, N-[cis/trans-3-[(5-fluoro-2H-indazol-2-yl)methyl]cyclohexyl]-3-(2-methyl-4-pyridinyl)-1H-indazole-5-carboxamide] showed a pIC50 of 6.58. Then `Cc1cc(-c2n[nH]c3ccc(C(=O)NC4CCCC(Cn5ncc6ccc(C(F)(F)F)cc65)C4)cc23)ccn1` (mixture of isomers) [compound 125, 3-(2-methyl-4-pyridinyl)-N-[cis/trans-3-[[6-(trifluoromethyl)-1H-indazol-1-yl]methyl]cyclohexyl]-1H-indazole-5-carboxamide], with 6.00. In the case of `Cc1cc(-c2n[nH]c3ccc(C(=O)NC4CCCC(Cn5ncc6cccc(F)c65)C4)cc23)ccn1` (mixture of isomers) [compound 126, N-[cis/trans-3-[(7-fluoro-1H-indazol-1-yl)methyl]cyclohexyl]-3-(2-methyl-4-pyridinyl)-1H-indazole-5-carboxamide], the pIC50 was 7.25. For `CCOC(=O)C1(Cc2ccccc2F)CCCC(NC(=O)c2ccc3[nH]nc(-c4ccnc(C)c4)c3c2)C1` (mixture of isomers) [compound 128, ethyl cis/trans-1-[(2-fluorophenyl)methyl]-3-[[[3-(2-methyl-4-pyridinyl)-1H-indazol-5-yl]carbonyl]amino]cyclo-hexanecarboxylate] the value was 6.00; for `Cc1cc(-c2n[nH]c3ccc(C(=O)NC4CCCC(CO)(Cc5ccccc5F)C4)cc23)ccn1` (mixture of isomers) [compound 130, N-[cis/trans-3-[(2-fluorophenyl)methyl]-3-(hydroxymethyl)cyclohexyl]-3-(2-methyl-4-pyridinyl)-1H-indazole-5-carboxamide], 6.00. Molecule `Cc1cc(-c2n[nH]c3ccc(C(=O)NC4CCCC(Cc5ccccc5F)(C(=O)O)C4)cc23)ccn1` (mixture of isomers) [compound 131, cis/trans-1-[(2-fluorophenyl)methyl]-3-[[[3-(2-methyl-4-pyridinyl)-1H-indazol-5-yl]carbonyl]amino]cyclo-hexanecarboxylic acid] had a pIC50 of 6.00. Then `Cc1cc(-c2n[nH]c3ccc(C(=O)NC4CCCC(F)(Cc5ccccc5F)C4)cc23)ccn1` (racemic) [compound 54, N-[3-fluoro-3-[(2-fluorophenyl)methyl]cyclohexyl]-3-(2-methyl-4-pyridinyl)-1H-indazole-5-carboxamide (racemic)], with 6.00. Then `O=C(N[C@H]1CCC[C@@](O)(Cc2ccccc2F)C1)c1ccc2[nH]nc(-c3ccc4nccn4c3)c2c1` (relative stereo) [compound 9, N-[trans-3-[(2-fluorophenyl)methyl]-3-hydroxycyclohexyl]-3-imidazo[1,2-a]pyridin-6-yl-1H-indazole-5-carboxamide], with 7.31; and `Cn1cc2cc(-c3n[nH]c4ccc(C(=O)N[C@@H]5CCC[C@@](O)(Cn6ccnc6)C5)cc34)ccc2n1` (relative stereo) [compound 57, N-[cis-3-hydroxy-3-(1H-imidazol-1-ylmethyl)cyclohexyl]-3-(2-methyl-2H-indazol-5-yl)-1H-indazole-5-carboxamide], with 7.42. `Cn1cc2cc(-c3n[nH]c4ccc(C(=O)N[C@@H]5CCC[C@](O)(Cn6ccnc6)C5)cc34)ccc2n1` (relative stereo) [compound 58, N-[trans-3-hydroxy-3-(1H-imidazol-1-ylmethyl)cyclohexyl]-3-(2-methyl-2H-indazol-5-yl)-1H-indazole-5-carboxamide] had a pIC50 of 7.21. Then `Cn1cc2cc(-c3n[nH]c4ccc(C(=O)N[C@@H]5CCC[C@](O)(Cn6cccn6)C5)cc34)ccc2n1` (relative stereo) [compound 59, N-[trans-3-hydroxy-3-(1H-pyrazol-1-ylmethyl)cyclohexyl]-3-(2-methyl-2H-indazol-5-yl)-1H-indazole-5-carboxamide], with 7.17; and `Cn1cc2cc(-c3n[nH]c4ccc(C(=O)N[C@@H]5CCC[C@@](O)(Cn6cccn6)C5)cc34)ccc2n1` (relative stereo) [compound 60, N-[cis-3-hydroxy-3-(1H-pyrazol-1-ylmethyl)cyclohexyl]-3-(2-methyl-2H-indazol-5-yl)-1H-indazole-5-carboxamide], with 6.82; and `Cn1cc2cc(-c3n[nH]c4ccc(C(=O)N[C@@H]5CCC[C@](O)(Cn6cnc7ccccc76)C5)cc34)ccc2n1` (relative stereo) [compound 61, N-[trans-3-(1H-benzimidazol-1-ylmethyl)-3-hydroxycyclohexyl]-3-(2-methyl-2H-indazol-5-yl)-1H-indazole-5-carboxamide], with 7.71.

As to `Cn1cc2cc(-c3n[nH]c4ccc(C(=O)N[C@@H]5CCC[C@@](O)(Cn6cnc7ccccc76)C5)cc34)ccc2n1` (relative stereo) [compound 62, N-[cis-3-(1H-benzimidazol-1-ylmethyl)-3-hydroxycyclohexyl]-3-(2-methyl-2H-indazol-5-yl)-1H-indazole-5-carboxamide], the pIC50 was 7.70. Turning to `Cc1cc(-c2n[nH]c3ccc(C(=O)N[C@@H]4CCC[C@](O)(Cn5cncn5)C4)cc23)ccn1` (relative stereo) [compound 63, N-[trans-3-hydroxy-3-(1H-1,2,4-triazol-1-ylmethyl)cyclohexyl]-3-(2-methyl-4-pyridinyl)-1H-indazole-5-carboxamide], the pIC50 was 6.71. Then `Cc1cc(-c2n[nH]c3ccc(C(=O)N[C@@H]4CCC[C@@](O)(Cn5cncn5)C4)cc23)ccn1` (relative stereo) [compound 64, N-[cis-3-hydroxy-3-(1H-1,2,4-triazol-1-ylmethyl)cyclohexyl]-3-(2-methyl-4-pyridinyl)-1H-indazole-5-carboxamide], with 7.00.

In turn, `Cc1cc(-c2n[nH]c3ccc(C(=O)N[C@@H]4CCC[C@](O)(Cn5c(C(F)(F)F)nc6ccccc65)C4)cc23)ccn1` (relative stereo) [compound 67, N-[trans-3-hydroxy-3-[[2-(trifluoromethyl)-1H-benzimidazol-1-yl]methyl]cyclohexyl]-3-(2-methyl-4-pyridinyl)-1H-indazole-5-carboxamide] had a negative logarithm of the IC50 (pIC50) of 6.36. Then `Cc1cc(-c2n[nH]c3ccc(C(=O)N[C@@H]4CCC[C@](O)(Cn5cnc6ncccc65)C4)cc23)ccn1` (relative stereo) [compound 71, N-[trans-3-hydroxy-3-(1H-imidazo[4,5-b]pyridin-1-ylmethyl)cyclohexyl]-3-(2-methyl-4-pyridinyl)-1H-indazole-5-carboxamide], with 6.33; and `Cc1cc(-c2n[nH]c3ccc(C(=O)N[C@@H]4CCC[C@](O)(Cn5cnc6cccnc65)C4)cc23)ccn1` (relative stereo) [compound 72, N-[trans-3-hydroxy-3-(3H-imidazo[4,5-b]pyridin-3-ylmethyl)cyclohexyl]-3-(2-methyl-4-pyridinyl)-1H-indazole-5-carboxamide], with 6.27. The molecule `Cc1cc(-c2n[nH]c3ccc(C(=O)N[C@@H]4CCC[C@](O)(Cn5cc6cccnc6n5)C4)cc23)ccn1` (relative stereo) [compound 73, N-[trans-3-hydroxy-3-(2H-pyrazolo[3,4-b]pyridin-2-ylmethyl)cyclohexyl]-3-(2-methyl-4-pyridinyl)-1H-indazole-5-carboxamide] showed a pIC50 of 6.21. For `Cc1cc(-c2n[nH]c3ccc(C(=O)N[C@@H]4CCC[C@](O)(Cn5ncc6ccncc65)C4)cc23)ccn1` (relative stereo) [compound 74, N-[trans-3-hydroxy-3-(1H-pyrazolo[3,4-c]pyridin-1-ylmethyl)cyclohexyl]-3-(2-methyl-4-pyridinyl)-1H-indazole-5-carboxamide] the value was 6.10; for `Cc1cc(-c2n[nH]c3ccc(C(=O)N[C@@H]4CCC[C@](O)(Cn5c(C)nc6cnccc65)C4)cc23)ccn1` (relative stereo) [compound 76, N-[trans-3-hydroxy-3-[(2-methyl-1H-imidazo[4,5-c]pyridin-1-yl)methyl]cyclohexyl]-3-(2-methyl-4-pyridinyl)-1H-indazole-5-carboxamide], 6.87; for `Cc1cc(-c2n[nH]c3ccc(C(=O)N[C@@H]4CCC[C@@](O)(Cn5c(C)nc6cnccc65)C4)cc23)ccn1` (relative stereo) [compound 77, N-[cis-3-hydroxy-3-[(2-methyl-1H-imidazo[4,5-c]pyridiN-1-yl)methyl]cyclohexyl]-3-(2-methyl-4-pyridinyl)-1H-indazole-5-carboxamide], 6.00.

In turn, `Cc1cc(-c2n[nH]c3ccc(C(=O)N[C@@H]4CCC[C@@](O)(Cn5cc6cccnc6n5)C4)cc23)ccn1` (relative stereo) [compound 78, N-[cis-3-hydroxy-3-(2H-pyrazolo[3,4-b]pyridin-2-ylmethyl)cyclohexyl]-3-(2-methyl-4-pyridinyl)-1H-indazole-5-carboxamide] gave a pIC50 of 6.23. For `Cc1cc(-c2n[nH]c3ccc(C(=O)N[C@@H]4CCC[C@@](O)(Cn5ncc6cccnc65)C4)cc23)ccn1` (relative stereo) [compound 79, N-[cis-3-hydroxy-3-(1H-pyrazolo[3,4-b]pyridin-1-ylmethyl)cyclohexyl]-3-(2-methyl-4-pyridinyl)-1H-indazole-5-carboxamide] the value was 8.07; for `Cc1cc(-c2n[nH]c3ccc(C(=O)N[C@@H]4CCC[C@@](O)(Cn5ncc6ccncc65)C4)cc23)ccn1` (relative stereo) [compound 80, N-[cis-3-hydroxy-3-(1H-pyrazolo[3,4-c]pyridin-1-ylmethyl)cyclohexyl]-3-(2-methyl-4-pyridinyl)-1H-indazole-5-carboxamide], 7.45.
